{"source": "patent US10322998B2", "about": "“Heterogeneous foldamers containing α, β, and/or γ-amino acids” (WISCONSIN ALUMNI RESEARCH FOUNDATION, priority 2002, dated 2019)", "assay": "Solubility, qualitative observations during synthesis and characterisation", "data": [{"smiles": "CC(C)[C@@H](NC(=O)OC(C)(C)C)C(=O)N[C@@H]1CCCC[C@H]1C(=O)N[C@@H](C(=O)N[C@@H]1CCCC[C@H]1C(=O)OCc1ccccc1)C(C)C", "note": "[2-28, Boc-D-Val-ACHC-D-Val-ACHC-Olin]", "values": [{"measurement": "solubility in organic solvents", "setting": "organic solvents, crude product", "value": "poor solubility"}]}, {"smiles": "CC(=O)NC1CCCC1C(=O)N[C@@H](Cc1ccccc1)C(=O)NC1CCCC1C(=O)N[C@@H](Cc1ccccc1)C(=O)NC1CCCC1C(=O)N[C@@H](Cc1ccccc1)C(N)=O", "note": "(stereo partly shown) [Peptide 42]", "values": [{"measurement": "solubility in common solvents", "setting": "crude compound, water, methanol, acetonitrile, acetone, ethyl acetate, methylene chloride, DMSO", "value": "insoluble"}]}, {"smiles": "COC(=O)[C@H]1CC[C@H](NC(=O)[C@H]2CC[C@H](NC(=O)[C@H]3CC[C@H](NC(=O)[C@H]4CC[C@H](NC(=O)OC(C)(C)C)C4)C3)C2)C1", "note": "[Compound 7]", "values": [{"measurement": "solubility in other solvents", "setting": "solvents other than 1:1 CDCl3:CD3OD", "value": "poor solubility"}]}, {"smiles": "CC(C)(CNC(=O)[C@H]1CC[C@H](NC(=O)[C@H]2CC[C@H](NC(=O)Cc3ccccc3)C2)C1)NC(=O)[C@H]1CCCN1C(=O)[C@H]1CC[C@H](NC(=O)[C@H]2CC[C@H](NC(=O)C(C)(C)C)C2)C1", "note": "[compound 3]", "values": [{"measurement": "solubility in CD2Cl2", "setting": "CD2Cl2", "value": "nearly insoluble"}]}]}
